The results in this text go back to US20110039857A1, “PIPERIDINE AND PYROOLIDINE COMPOUNDS” (priority 2008, published 2011).

One assay concerns the target T1, human orexin-1 receptor (Homo sapiens, UniProt O43613).
T1 construct: expressed in transfected cells; host or cells: CHO (Chinese hamster ovary) cells under G418 selection
T1 sequence (O43613 1-425): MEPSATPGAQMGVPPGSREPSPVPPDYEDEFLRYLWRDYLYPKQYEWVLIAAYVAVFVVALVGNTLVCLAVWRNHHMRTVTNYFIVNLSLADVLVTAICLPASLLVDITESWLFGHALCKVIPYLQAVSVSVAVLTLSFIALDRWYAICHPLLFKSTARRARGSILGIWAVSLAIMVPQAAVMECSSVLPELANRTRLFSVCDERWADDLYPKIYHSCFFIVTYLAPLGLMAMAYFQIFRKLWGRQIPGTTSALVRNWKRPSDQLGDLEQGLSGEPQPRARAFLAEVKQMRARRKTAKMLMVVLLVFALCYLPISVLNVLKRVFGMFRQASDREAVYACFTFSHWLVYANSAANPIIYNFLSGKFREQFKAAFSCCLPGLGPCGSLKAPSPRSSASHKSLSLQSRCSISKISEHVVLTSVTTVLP
Description: Intracellular calcium measurements (FLIPR), orexin receptor antagonistic activity. It counts as cell-based. The conditions noted are these: CHO cells expressing human orexin-1 receptor; agonist 3 nM orexin-A; read-out: OX1 IC50. Here is the method:
(§1) The orexin receptor antagonistic activity of the compounds of formula (I) is determined in accordance with the following experimental method.
(§2) Intracellular Calcium Measurements:
(§3) Chinese hamster ovary (CHO) cells expressing the human orexin-1 receptor and the human orexin-2 receptor, respectively, are grown in culture medium (Ham F-12 with L-Glutamine) containing 300 μg/ml G418, 100 U/ml penicillin, 100 μg/ml streptomycin and 10% heat inactivated fetal calf serum (FCS). The cells are seeded at 20′000 cells/well into 384-well black clear bottom sterile plates (Greiner). The seeded plates are incubated overnight at 37° C. in 5% CO2.
(§4) Human orexin-A as an agonist is prepared as 1 mM stock solution in MeOH: water (1:1), diluted in HBSS containing 0.1% bovine serum albumin (BSA), NaHCO3: 0.375g/l and 20 mM HEPES for use in the assay at a final concentration of 3 nM.
(§5) Antagonists are prepared as 10 mM stock solution in DMSO, then diluted in 384-well plates using DMSO followed by a transfer of the dilutions into in HBSS containing 0.1% bovine serum albumin (BSA), NaHCO3: 0.375g/l and 20 mM HEPES. On the day of the assay, 50 μl of staining buffer (HBSS containing 1% FCS, 20 mM HEPES, NaHCO3: 0.375g/l, 5 mM probenecid (Sigma) and 3 μM of the fluorescent calcium indicator fluo-4 AM (1 mM stock solution in DMSO, containing 10% pluronic) is added to each well. The 384-well cell-plates are incubated for 50 min at 37° C. in 5% CO2 followed by equilibration at RT for 30-120 min before measurement.
(§6) Within the Fluorescent Imaging Plate Reader (FLIPR, Molecular Devices), antagonists are added to the plate in a volume of 10 μl/well, incubated for 10 min and finally 10 μl/well of agonist is added. Fluorescence is measured for each well at 1 second intervals, and the height of each fluorescence peak is compared to the height of the fluorescence peak induced by 3 nM orexin-A with vehicle in place of antagonist. For each antagonist, the IC50 value (the concentration of compound needed to inhibit 50% of the agonistic response) is determined.

Another assay deals with T2, human orexin-2 receptor (Homo sapiens, UniProt O43614).
T2 construct: expressed in transfected cells; host or cells: CHO (Chinese hamster ovary) cells under G418 selection
T2 sequence (O43614 1-444): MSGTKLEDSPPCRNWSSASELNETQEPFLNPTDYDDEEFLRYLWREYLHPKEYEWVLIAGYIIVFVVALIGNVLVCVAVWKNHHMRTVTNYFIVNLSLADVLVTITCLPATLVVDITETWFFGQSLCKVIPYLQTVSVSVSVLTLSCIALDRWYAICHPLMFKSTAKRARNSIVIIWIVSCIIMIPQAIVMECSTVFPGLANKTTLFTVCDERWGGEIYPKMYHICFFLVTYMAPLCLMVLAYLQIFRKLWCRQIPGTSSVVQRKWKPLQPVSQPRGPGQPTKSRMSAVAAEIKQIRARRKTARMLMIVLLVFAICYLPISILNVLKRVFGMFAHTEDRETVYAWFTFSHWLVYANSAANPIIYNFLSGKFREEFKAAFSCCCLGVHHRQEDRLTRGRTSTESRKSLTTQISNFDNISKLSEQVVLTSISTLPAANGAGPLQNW
The description is as above. The format is cell-based. The conditions noted are these: CHO cells expressing human orexin-2 receptor; agonist 3 nM orexin-A; read-out: OX2 IC50. The method, then:
as §1, §2, §3, §4, §5, §6

The IC50 is the concentration that gives 50% inhibition.

`Cc1ccc(-c2ccccc2C(=O)N2CCC[C@@H](Nc3nccc(C(F)(F)F)n3)C2)cc1C` [Example 1, (R)-(3′,4′-Dimethyl-biphenyl-2-yl)-[3-(4-trifluoromethyl-pyrimidin-2-ylamino)-piperidin-1-yl]-methanone]: the half-maximal inhibitory concentration (IC50) at human orexin-1 receptor amounted to 58 nM; at human orexin-2 receptor, 43 nM.
The like results for `COc1cc(OC)nc(N[C@@H]2CCCN(C(=O)c3ccccc3-c3ccc(C)c(C)c3)C2)n1` [Example 2, (R)-[3-(4,6-Dimethoxy-pyrimidin-2-ylamino)-piperidin-1-yl]-(3′,4′-dimethyl-biphenyl-2-yl)-methanone] were, in that order, 25 nM and 10 nM.
With `Cc1ccc(-c2ccccc2C(=O)N2CCC[C@@H](Nc3cnc4ccccc4n3)C2)cc1C` [Example 6, (R)-(3′,4′-Dimethyl-biphenyl-2-yl)-[3-(quinoxalin-2-ylamino)-piperidin-1-yl]-methanone], the half-inhibitory concentration (IC50) turned out to be 13 nM on human orexin-1 receptor and 11 nM on human orexin-2 receptor.
The like results for `Cc1cccc(-c2ccccc2C(=O)N2CCC[C@@H](NC(=O)c3nn(C)c4ccccc34)C2)c1` [Example 34, (R)-1-Methyl-1H-indazole-3-carboxylic acid[1-(3′-methyl-biphenyl-2-carbonyl)-piperidin-3-yl]-amide] were, in that order, 33 nM and 15 nM.
With `Cc1ccc(-c2ccccc2C(=O)N2CCC[C@@H](NC(=O)c3cn(C)c4ccccc34)C2)cc1C` [Example 41, (R)-1-Methyl-1H-indole-3-carboxylic acid[1-(3′,4′-dimethyl-biphenyl-2-carbonyl)-piperidin-3-yl]-amide], the values for the IC50 at human orexin-1 receptor and on human orexin-2 receptor were 32 nM and 25 nM, respectively.
